In brackets after ≈: the same amount, converted by molar mass. Counter-ions that a name gives are not always drawn. Like-named read-outs stand apart in the source and are kept apart here.
Legend:
[1] = tested on: E. coli (ATCC 35218); test: microbe, parasite or virus in culture; assay type: cell-based; conditions: for MIC80: Escherichia coli, ATCC35218, read-out: MIC80 E. coli, E. coli ATCC 35218; for MIC80 E. coli: E. coli ATCC 35218
Protocol: (§1) To further characterize the compounds, the minimal inhibitory concentration (MIC80) were determined for selected compounds. MIC80 is defined as the compound concentration at which ≥80% bacterial growth is inhibited compare to untreated controls. Meanwhile, for the selected compounds, cytotoxicity assays (CC50) were performed on a HepG2-derived hepatoblastoma cell line (HEPDES19). […] For CC50 evaluation, soluble tetrazolium dye (MTS) was used to measure mitochondrial toxicity in a human hepatoblastoma cell line (18). The bacteria (E. coli, S. saprophyticus and A. baumannii) used in MIC80 measurements were the same as that in the primary screening, but for Staphylococcus, S. aureus is used primarily because it is a common pathogen in Staphylococcaeae family, while S. saprophyticus is part of the normal human flora.

[2] = tested on: Acinetobacter baumannii (Abl, from a patient); test: microbe, parasite or virus in culture; assay type: cell-based; conditions: for MIC80: Acinetobacter baumannii, read-out: MIC80 A. baumannii, A. baumannii Ab1, MDR patient isolate; for MIC80 A. baumannii: A. baumannii Ab1, MDR patient isolate
Protocol: as §1

[3] = tested on: S. aureus (ATCC 29213); test: MIC80 on S. aureus; assay type: cell-based, Staphylococcus aureus; conditions: ≥80% growth inhibition; for MIC80: Staphylococcus aureus, ATCC 29213 / MSSA, read-out: MIC80 S. aureus, S. aureus ATCC 29213 (MSSA); for MIC80 S. aureus: S. aureus ATCC 29213 (MSSA)
Protocol: as §1

[4] = tested on: S. aureus and/or S. saprophyticus; test: MIC80 on S. aureus and/or S. saprophyticus; assay type: cell-based; conditions: read-out: MIC80 against S. aureus and/or S. saprophyticus
Protocol: as §1, with “(HEPDES19). […] For the MIC80 measurements, a 1.5 fold dilution series of the compounds was prepared in Mueller-Hinton II broth.” for “(HEPDES19).”, “flora. S. aureus (ATCC 29213) is methicillin-sensitive Staphylococcus aureus (MSSA) strain and it was used as a model strain to measure the MIC80.” for “flora.”

[5] = Cytotoxicity assay (CC50), MTS; assay type: cell-based, human; conditions: human, HEPDES19 cells
Protocol: as §1

[6] = tested on: Staphylococcus saprophyticus (ATCC BAA-750); test: MIC80 on S. saprophyticus; assay type: cell-based; conditions: S. saprophyticus ATCC BAA-750, read-out: MIC80 S. sapro
Protocol: as §1

[7] = tested on: Klebsiella pneumonia; test: Antibiotic susceptibility of Klebsiella pneumonia strains; assay type: cell-based
Excerpt: (§2) All these MDR-bacteria are at least resistant to two classes of the antibiotics among five groups and/or specific antibiotics including quinolones/fluorquinolones, carbapenems, cephalosporins, aminoglycosides and piperacillin-tazobactam.

[8] = tested on: MDR Acinetobacter baumannii; assay type: cell-based
Excerpt: as §2

[9] = tested on: MDR E. coli; assay type: cell-based
Excerpt: as §2

[10] = tested on: Morganella morganii; test: Antibiotic susceptibility of Morganella morganii strain; assay type: cell-based; conditions: Mm1 (Morganella morganii)
Excerpt: as §2

[11] = tested on: Citrobacter koseri; test: Antibiotic susceptibility of Citrobacter koseri strain; assay type: cell-based; conditions: Ck1 (Citrobacter koseri)
Excerpt: as §2

[12] = tested on: HepG2-derived hepatoblastoma cell line (HEPDES19); test: Cytotoxicity assay (CC50), MTS; assay type: cell-based, human; conditions: HEPDES19 cells
Protocol: as §1

[13] = HepG2-derived hepatoblastoma cell line (HEPDES19)
[14] = Staphylococcus saprophyticus, ATCCBAA750

Cc1cc(O)c(=O)c(O)cc1C(=O)C1CCCCC1 [Compound 120]
MIC80 [1]: 44.4 µM (≈ 11.6 µg/mL) | MIC80 [2]: 83.4 µM (≈ 21.9 µg/mL) | MIC80 [3]: 19.8 µM (≈ 5.19 µg/mL) | MIC80 [4]: < 20 µM | CC50 [5, 13]: < 50 µM

O=c1cc(Cc2ccc(Br)cc2)c2cccnc2n1O [Compound 149, 4-[(4-bromophenyl)methyl]-1-hydroxy-1,8-naphthyridin-2-one hydrobromide]
MIC80 [1]: > 100 µM | MIC80 [6, 14]: 2.5 µM

CC(C)c1ccc(O)c(=O)c(O)c1 [Compound 46]
MIC80 [1]: 44.4 µM (≈ 8 µg/mL) | MIC80 [2]: 100 µM (≈ 18 µg/mL) | MIC80 [6, 14]: 29.6 µM (≈ 5.33 µg/mL) | MIC80 [3]: 19.8 µM (≈ 3.57 µg/mL) | MIC80 [4]: < 20 µM | CC50 [5]: < 50 µM

Cc1nnc(SCC2=C(C(=O)O)N3C(=O)[C@@H](NC(=O)Cn4cnnn4)[C@H]3SC2)s1 [CFZ, Cefazolin]
Antibiotic susceptibility ([7]; Kp1 (Klebsiella pneumonia)): R | Antibiotic susceptibility ([7]; Kp6 (Klebsiella pneumonia)): R | Antibiotic susceptibility ([8]; Ab1 (Acinetobacter baumannii)): R | Antibiotic susceptibility ([8]; Ab2 (Acinetobacter baumannii)): R | Antibiotic susceptibility ([8]; Ab3 (Acinetobacter baumannii)): R | Antibiotic susceptibility ([8]; Ab4 (Acinetobacter baumannii)): R | Antibiotic susceptibility ([8]; Ab5 (Acinetobacter baumannii)): R | Antibiotic susceptibility ([9]; Ec1 (E. coli)): R | Antibiotic susceptibility ([9]; Ec2 (E. coli)): R | Antibiotic susceptibility ([9]; Ec3 (E. coli)): R | Antibiotic susceptibility ([9]; Ec4 (E. coli)): R | Antibiotic susceptibility ([9]; Ec5 (E. coli)): R | Antibiotic susceptibility [10]: R | Antibiotic susceptibility [11]: R

Ampicillin-Sulbactam [SAM]
Antibiotic susceptibility ([7]; Kp1 (Klebsiella pneumonia)): R | Antibiotic susceptibility ([7]; Kp6 (Klebsiella pneumonia)): R | Antibiotic susceptibility ([8]; Ab1 (Acinetobacter baumannii)): S | Antibiotic susceptibility ([8]; Ab2 (Acinetobacter baumannii)): S | Antibiotic susceptibility ([8]; Ab3 (Acinetobacter baumannii)): S | Antibiotic susceptibility ([8]; Ab4 (Acinetobacter baumannii)): S | Antibiotic susceptibility ([8]; Ab5 (Acinetobacter baumannii)): I | Antibiotic susceptibility ([9]; Ec1 (E. coli)): R | Antibiotic susceptibility ([9]; Ec2 (E. coli)): I | Antibiotic susceptibility ([9]; Ec3 (E. coli)): I | Antibiotic susceptibility ([9]; Ec4 (E. coli)): R | Antibiotic susceptibility ([9]; Ec5 (E. coli)): R | Antibiotic susceptibility [10]: R

O=c1ccccc(Br)c1O [Compound 54]
MIC80 [1]: 70.4 µM (≈ 14.2 µg/mL) | MIC80 [2]: 44.4 µM (≈ 8.93 µg/mL) | MIC80 [6, 14]: 14.9 µM (≈ 3 µg/mL) | MIC80 [3]: 16.1 µM (≈ 3.24 µg/mL) | MIC80 [4]: < 20 µM | CC50 [5, 13]: > 50 µM

Cc1cc(O)c(O)c(=O)c(O)c1 [Compound 272]
MIC80 [1]: 44.4 µM (≈ 7.47 µg/mL) | MIC80 A. baumannii [2]: 29.6 µM (≈ 4.98 µg/mL) | MIC80 [2]: < 30 µM | CC50 [5, 13]: 10 µM

Cc1cc(O)c(=O)c(O)cc1C(=O)c1cccs1 [Compound 308]
MIC80 E. coli [1]: 24.7 µM (≈ 6.48 µg/mL) | MIC80 [1]: < 30 µM | MIC80 [2]: 32.1 µM (≈ 8.42 µg/mL) | MIC80 [6, 14]: 29.6 µM (≈ 7.76 µg/mL) | MIC80 [3]: 44.4 µM (≈ 11.6 µg/mL) | CC50 [5, 13]: < 50 µM | CC50 [12]: 26 µM

CC1(C)S[C@@H]2[C@H](NC(=O)[C@H](N)c3ccccc3)C(=O)N2[C@H]1C(=O)O [AMP, Ampicillin]
Antibiotic susceptibility ([7]; Kp1 (Klebsiella pneumonia)): R | Antibiotic susceptibility ([7]; Kp6 (Klebsiella pneumonia)): R | Antibiotic susceptibility ([8]; Ab1 (Acinetobacter baumannii)): R | Antibiotic susceptibility ([8]; Ab2 (Acinetobacter baumannii)): R | Antibiotic susceptibility ([8]; Ab3 (Acinetobacter baumannii)): R | Antibiotic susceptibility ([8]; Ab4 (Acinetobacter baumannii)): R | Antibiotic susceptibility ([8]; Ab5 (Acinetobacter baumannii)): R | Antibiotic susceptibility ([9]; Ec1 (E. coli)): R | Antibiotic susceptibility ([9]; Ec2 (E. coli)): R | Antibiotic susceptibility ([9]; Ec3 (E. coli)): R | Antibiotic susceptibility ([9]; Ec4 (E. coli)): R | Antibiotic susceptibility ([9]; Ec5 (E. coli)): R | Antibiotic susceptibility [10]: R

O=c1ccc2ccccc2n1O [Compound 43]
MIC80 [1]: 111 µM (≈ 17.9 µg/mL) | MIC80 [6, 14]: 11.4 µM (≈ 1.84 µg/mL) | MIC80 [3]: 13.2 µM (≈ 2.13 µg/mL) | MIC80 [4]: < 20 µM | CC50 [5, 13]: > 50 µM | CC50 [12]: ≥ 100 µM

CC1=C(C#N)C(O)=NC(=O)/C1=C\c1ccc(-c2ccccc2)o1 [Compound 140]
MIC80 [1]: > 100 µM | MIC80 [6, 14]: 12.7 µM (≈ 3.86 µg/mL) | MIC80 [3]: 3.9 µM (≈ 1.19 µg/mL) | MIC80 [4]: < 20 µM | CC50 [5, 13]: < 50 µM | CC50 [12]: 42 µM

O=c1cccccc1O [Compound 53]
MIC80 E. coli [1]: >100 µM | MIC80 [6]: 8.8 µM (≈ 1.07 µg/mL) | MIC80 S. aureus [3]: 11.7 µM (≈ 1.43 µg/mL) | CC50 [12]: ≥ 100 µM

O=C(Oc1cccccc1=O)c1ccc([N+](=O)[O-])cc1 [Compound 51]
MIC80 [1]: 167 µM (≈ 45.2 µg/mL) | MIC80 [6, 14]: 15.1 µM (≈ 4.1 µg/mL) | MIC80 [3]: 16.5 µM (≈ 4.48 µg/mL) | MIC80 [4]: < 20 µM | CC50 [5, 13]: > 50 µM | CC50 [12]: 56 µM

O=c1cc(-c2ccccc2)c2cccnc2n1O [Compound 154, 1-hydroxy-4-phenyl-1,8-naphthyridin-2-one]
MIC80 E. coli [1]: 21.9 µM (≈ 5.22 µg/mL) | MIC80 [1]: < 30 µM | MIC80 [6, 14]: 17.8 µM (≈ 4.24 µg/mL) | MIC80 [4]: < 20 µM | CC50 [5, 13]: 4 µM

Cc1cc(O)c(=O)c(O)cc1C(=O)C1CC1 [Compound 310]
MIC80 E. coli [1]: 29.6 µM (≈ 6.52 µg/mL) | MIC80 [1]: < 30 µM | MIC80 A. baumannii [2]: 29.6 µM (≈ 6.52 µg/mL) | MIC80 [2]: < 30 µM | MIC80 [6, 14]: 44.4 µM (≈ 9.78 µg/mL) | CC50 [5, 13]: > 50 µM

Cc1cc(O)c(=O)c(O)cc1C(=O)c1ccccc1O [Compound 311]
MIC80 E. coli [1]: 29.6 µM (≈ 8.06 µg/mL) | MIC80 [1]: < 30 µM | MIC80 [2]: 44.4 µM (≈ 12.1 µg/mL) | MIC80 [3]: 66.7 µM (≈ 18.2 µg/mL) | CC50 [5, 13]: < 50 µM | CC50 [12]: 32 µM

O=c1c(O)ccc(-c2ccccc2)cc1O [Compound 262]
MIC80 [1]: 66.7 µM (≈ 14.3 µg/mL) | MIC80 [2]: 100 µM (≈ 21.4 µg/mL) | MIC80 [6, 14]: 19.8 µM (≈ 4.24 µg/mL) | MIC80 [3]: 19.8 µM (≈ 4.24 µg/mL) | MIC80 [4]: < 20 µM | CC50 [5, 13]: > 50 µM | CC50 [12]: 57 µM

CC(C)C(CO)n1cc(C(=O)O)c(=O)c2cc(Cc3cccc(Cl)c3F)c(F)cc21 (stereo not drawn) [Compound 75]
MIC80 E. coli [1]: 100 µM (≈ 43.6 µg/mL) | MIC80 [6]: 15.1 µM (≈ 6.58 µg/mL) | MIC80 S. aureus [3]: 8.8 µM (≈ 3.84 µg/mL) | CC50 [12]: 28 µM

O=C(Oc1cccccc1=O)c1ccccc1 [Compound 62]
MIC80 [1]: 111 µM (≈ 25.1 µg/mL) | MIC80 [2]: 83.4 µM (≈ 18.9 µg/mL) | MIC80 [6, 14]: 10.3 µM (≈ 2.33 µg/mL) | MIC80 [3]: 19.8 µM (≈ 4.48 µg/mL) | MIC80 [4]: < 20 µM | CC50 [5, 13]: > 50 µM

O=c1c(Br)cc(Br)cc(Br)c1O [Compound 350]
MIC80 [1]: 100 µM (≈ 35.9 µg/mL) | MIC80 [2]: 100 µM (≈ 35.9 µg/mL) | MIC80 [3]: 2.6 µM (≈ 0.933 µg/mL) | MIC80 [4]: < 20 µM | CC50 [5, 13]: < 50 µM | CC50 [12]: 45 µM

From patent US12502362B2, “Inhibitors of nucleotidyltransferase superfamily enzymes as antibiotics” (priority 2017, dated 2025)
